Data from ChEMBL document CHEMBL4312026, “Synthesis, biological and molecular dynamics investigations with a series of triazolopyrimidine/triazole-based benzenesulfonamides as novel carbonic anhydrase inhibitors” (Eur J Med Chem, 2020).

Tests used:
Carbonic anhydrase 1 [1] = molecular target: T1, Carbonic anhydrase 1 (Homo sapiens, UniProt P00915); experiment: Inhibition of recombinant human carbonic anhydrase-1 incubated for 15 mins by stopped flow CO2 hydrase assay
Carbonic anhydrase 2 [2] = molecular target: T2, Carbonic anhydrase 2 (Homo sapiens, UniProt P00918); experiment: Inhibition of recombinant human carbonic anhydrase-2 incubated for 15 mins by stopped flow CO2 hydrase assay
Carbonic anhydrase 9 [3] = molecular target: T3, Carbonic anhydrase 9 (Homo sapiens, UniProt Q16790); experiment: Inhibition of recombinant human carbonic anhydrase-9 incubated for 15 mins by stopped flow CO2 hydrase assay
Carbonic anhydrase 1 [4] = molecular target: T1, Carbonic anhydrase 1; experiment: Inhibition of recombinant human carbonic anhydrase-1 at 0.01 uM after 15 mins by stopped flow CO2 hydrase assay (reference value: 0%)
Carbonic anhydrase 1 [5] = molecular target: T1, Carbonic anhydrase 1; experiment: Inhibition of recombinant human carbonic anhydrase-1 at 0.1 uM after 15 mins by stopped flow CO2 hydrase assay (reference value: 0%)
Carbonic anhydrase 1 [6] = molecular target: T1, Carbonic anhydrase 1; experiment: Inhibition of recombinant human carbonic anhydrase-1 at 1 uM after 15 mins by stopped flow CO2 hydrase assay (reference value: 0%)
Carbonic anhydrase 1 [7] = molecular target: T1, Carbonic anhydrase 1; experiment: Inhibition of recombinant human carbonic anhydrase-1 at 10 uM after 15 mins by stopped flow CO2 hydrase assay (reference value: 0%)
Carbonic anhydrase 2 [8] = molecular target: T2, Carbonic anhydrase 2; experiment: Inhibition of recombinant human carbonic anhydrase-2 at 0.01 uM after 15 mins by stopped flow CO2 hydrase assay (reference value: 0%)
Carbonic anhydrase 2 [9] = molecular target: T2, Carbonic anhydrase 2; experiment: Inhibition of recombinant human carbonic anhydrase-2 at 0.1 uM after 15 mins by stopped flow CO2 hydrase assay (reference value: 0%)
Carbonic anhydrase 2 [10] = molecular target: T2, Carbonic anhydrase 2; experiment: Inhibition of recombinant human carbonic anhydrase-2 at 1 uM after 15 mins by stopped flow CO2 hydrase assay (reference value: 0%)
Carbonic anhydrase 2 [11] = molecular target: T2, Carbonic anhydrase 2; experiment: Inhibition of recombinant human carbonic anhydrase-2 at 10 uM after 15 mins by stopped flow CO2 hydrase assay (reference value: 0%)
Carbonic anhydrase 9 [12] = molecular target: T3, Carbonic anhydrase 9; experiment: Inhibition of recombinant human carbonic anhydrase-9 at 0.1 nM after 15 mins by stopped flow CO2 hydrase assay (reference value: 0%)
Carbonic anhydrase 9 [13] = molecular target: T3, Carbonic anhydrase 9; settings: at 1 nM
Description: Inhibition of recombinant human carbonic anhydrase-9 at 1 nM after 15 mins by stopped flow CO2 hydrase assay (Rvb = 0%)

Carbonic anhydrase 9 [14] = molecular target: T3, Carbonic anhydrase 9; settings: at 0.01 µM
Description: Inhibition of recombinant human carbonic anhydrase-9 at 0.01 uM after 15 mins by stopped flow CO2 hydrase assay (Rvb = 0%)

Carbonic anhydrase 9 [15] = molecular target: T3, Carbonic anhydrase 9; settings: at 0.1 µM
Description: Inhibition of recombinant human carbonic anhydrase-9 at 0.1 uM after 15 mins by stopped flow CO2 hydrase assay (Rvb = 0%)

T1 sequence (P00915 whole entry): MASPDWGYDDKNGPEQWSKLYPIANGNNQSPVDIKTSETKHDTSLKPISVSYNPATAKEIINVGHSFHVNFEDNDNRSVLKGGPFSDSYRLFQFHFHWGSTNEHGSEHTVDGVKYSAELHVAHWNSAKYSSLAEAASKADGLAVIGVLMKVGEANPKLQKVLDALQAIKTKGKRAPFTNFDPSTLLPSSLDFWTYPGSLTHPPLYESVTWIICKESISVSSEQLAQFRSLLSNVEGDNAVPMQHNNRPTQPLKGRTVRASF

Row | Ki (Carbonic anhydrase 1 [1]) | Ki (Carbonic anhydrase 2 [2]) | Ki (Carbonic anhydrase 9 [3]) | Compound | other results
1 | 307 nM | 70.5 nM | 4.9 nM | Nc1nc(C(=O)NNC(=O)Nc2ccccc2)nn1-c1ccc(S(N)(=O)=O)cc1 | –
2 | 495 nM | 65.2 nM | 31.5 nM | Nc1nc(C(=O)N/N=C/c2ccc(F)cc2)nn1-c1ccc(S(N)(=O)=O)cc1 | –
3 | 677 nM | 78.7 nM | 28.6 nM | Nc1nc(NC(=O)Nc2ccc(S(N)(=O)=O)cc2)nn1-c1ccc(S(N)(=O)=O)cc1 | –
4 | 537 nM | 10.9 nM | 16.4 nM | Nc1nc(C(=O)NNC(=O)Nc2ccc(Cl)cc2)nn1-c1ccc(S(N)(=O)=O)cc1 | –
5 | 94.4 nM | 65.5 nM | 7.8 nM | Nc1nc(NC(=O)Nc2ccc(F)cc2)nn1-c1ccc(S(N)(=O)=O)cc1 | –
6 | 403 nM | 9.5 nM | 43.3 nM | Nc1nc(NC(=O)Nc2ccc(Cl)cc2)nn1-c1ccc(S(N)(=O)=O)cc1 | –
7 | 368 nM | 9.7 nM | 40.2 nM | Nc1nc(C(=O)NNC(=S)Nc2ccccc2)nn1-c1ccc(S(N)(=O)=O)cc1 | –
8 | 703 nM | 6.9 nM | 73.2 nM | Nc1nc(C(=O)N/N=C/c2ccc(Cl)cc2)nn1-c1ccc(S(N)(=O)=O)cc1 | –
9 | 695 nM | 127 nM | 3.3 nM | COc1ccc(NC(=O)Nc2nc(N)n(-c3ccc(S(N)(=O)=O)cc3)n2)cc1 | inhibition at 0.25 h, 0.01 µM (Carbonic anhydrase 1 [4]): 14%; inhibition at 0.25 h, 0.1 µM (Carbonic anhydrase 1 [5]): 31%; inhibition at 0.25 h, 1 µM (Carbonic anhydrase 1 [6]): 63%; inhibition at 0.25 h, 10 µM (Carbonic anhydrase 1 [7]): 75%; inhibition at 0.25 h, 0.01 µM (Carbonic anhydrase 2 [8]): 15%; inhibition at 0.25 h, 0.1 µM (Carbonic anhydrase 2 [9]): 48%; inhibition at 0.25 h, 1 µM (Carbonic anhydrase 2 [10]): 76%; inhibition at 0.25 h, 10 µM (Carbonic anhydrase 2 [11]): 85%; inhibition (Carbonic anhydrase 9 [12]): 18 to 20%; inhibition (Carbonic anhydrase 9 [13]): 45 to 47%; inhibition (Carbonic anhydrase 9 [14]): 72 to 74%; inhibition (Carbonic anhydrase 9 [15]): 79 to 81%
10 | 335 nM | 8.8 nM | 8.3 nM | Nc1nc(C(=O)N/N=C/c2ccc(O)cc2)nn1-c1ccc(S(N)(=O)=O)cc1 | –
11 | 507 nM | 9.6 nM | 15.3 nM | Nc1nc(NC(=O)Nc2ccc(C(=O)O)cc2)nn1-c1ccc(S(N)(=O)=O)cc1 | –
12 | 1540 nM | 24.7 nM | 34.4 nM | Nc1nc(C(=O)N/N=C/c2ccc([N+](=O)[O-])cc2)nn1-c1ccc(S(N)(=O)=O)cc1 | –
13 | 313 nM | 42.8 nM | 3.9 nM | Cc1ccc(NC(=O)Nc2nc(N)n(-c3ccc(S(N)(=O)=O)cc3)n2)cc1 | –
14 | 598 nM | 11.1 nM | 16.7 nM | Nc1nc(C(=O)NNC(=S)Nc2ccc(Cl)cc2)nn1-c1ccc(S(N)(=O)=O)cc1 | –

Further lines, the compound ahead of its results:

Row | Compound | Ki (Carbonic anhydrase 1 [1]) | Ki (Carbonic anhydrase 2 [2]) | Ki (Carbonic anhydrase 9 [3]) | other results
15 | Cc1cc(=O)n2c(C(=O)NN)nn(-c3ccc(S(N)(=O)=O)cc3)c2n1 | 1680 nM | 74.7 nM | 45.4 nM | –
16 | NNC(=O)c1nc(N)n(-c2ccc(S(N)(=O)=O)cc2)n1 | 523 nM | 19.9 nM | 22.8 nM | –
17 | NS(=O)(=O)c1ccc(-n2nnc(C(=O)N/N=C(/CC(=O)c3ccccn3)C(F)(F)F)c2-c2ccccc2)cc1 | – | – | 0.7 nM | –
18 | Cc1cc(=O)n2c(C(=O)N/N=C/c3ccccn3)nn(-c3ccc(S(N)(=O)=O)cc3)c2n1 | 3720 nM | 537 nM | 47.9 nM | –
19 | C/C(=N\NC(=O)c1nc(N)n(-c2ccc(S(N)(=O)=O)cc2)n1)c1ccc(N2CCOCC2)cc1 | 793 nM | 53.9 nM | 31.7 nM | –
20 | Nc1nc(C(=O)N/N=C/c2ccccc2)nn1-c1ccc(S(N)(=O)=O)cc1 | 771 nM | 86.4 nM | 41.1 nM | –
21 | C/C(=N\NC(=O)c1nc(N)n(-c2ccc(S(N)(=O)=O)cc2)n1)c1ccncc1 | 295 nM | 8.5 nM | 5.8 nM | –
22 | CCOC(=O)c1nn(-c2ccc(S(N)(=O)=O)cc2)c2nc(C)cc(=O)n12 | 698 nM | 85.6 nM | 35.9 nM | –
23 | Nc1nc(NC(=O)Nc2ccccc2)nn1-c1ccc(S(N)(=O)=O)cc1 | 442 nM | 9.8 nM | 8.2 nM | –
24 | Cc1cc(=O)n2c(C(=O)N/N=C/c3ccncc3)nn(-c3ccc(S(N)(=O)=O)cc3)c2n1 | 2480 nM | 456 nM | 24.6 nM | –
25 | C/C(=N\NC(=O)c1nc(N)n(-c2ccc(S(N)(=O)=O)cc2)n1)c1ccccc1 | 633 nM | 8.9 nM | 41.3 nM | –
26 | Nc1nc(C(=O)N/N=C/c2cccnc2)nn1-c1ccc(S(N)(=O)=O)cc1 | 477 nM | 74.2 nM | 6.6 nM | –
27 | COc1ccc(/C=N/NC(=O)c2nn(-c3ccc(S(N)(=O)=O)cc3)c3nc(C)cc(=O)n23)cc1 | 2380 nM | 325 nM | 63.2 nM | –
28 | Nc1nc(C(=O)N/N=C/c2ccc(N3CCCCC3)cc2)nn1-c1ccc(S(N)(=O)=O)cc1 | 825 nM | 95.4 nM | 33 nM | –
29 | Nc1nc(C(=O)N/N=C/c2ccc(N3CCOCC3)cc2)nn1-c1ccc(S(N)(=O)=O)cc1 | 988 nM | 64.2 nM | 19.7 nM | –
30 | Cc1cc(=O)n2c(C(=O)N/N=C/c3ccc(N4CCN(C)CC4)cc3)nn(-c3ccc(S(N)(=O)=O)cc3)c2n1 | 4950 nM | 838 nM | 85 nM | –
31 | CC(=O)OC[C@@H]1O[C@@H](OCc2cn(-c3ccc(S(N)(=O)=O)cc3)nn2)[C@@H](OC(C)=O)[C@H](OC(C)=O)[C@H]1OC(C)=O | – | – | 9.7 nM | –
32 | COC(=O)c1nn(-c2ccc(S(N)(=O)=O)cc2)c2nc3cc(-c4cccs4)cc(-c4ccc([N+](=O)[O-])cc4)c3c(=O)n12 | – | – | 0.16 nM | –
